“Also recorded” adds a separate entry of the source.
Experiments:
A2058 cells = assay: Western blotting of cancer-related proteins, A2058 cells (Test Example 10); type: cell-based, human; details: 3 µM, 56 hours
B16F10 cells [1] = assay: Influence on anticancer action of 2-DG, cell viability (Test Example 3); type: cell-based, mouse; details: neopetasin 0.3 µM or 3 µM with 2-DG, 36 hours
Method: Specifically, to start with, B16F10 cells were seeded in a six-well plate in an amount of 0.5×10^5 cells/mL. Next, after 24 hours starting from seeding, 2-DG (concentration changed from 3 mM to 3 nM) was added and simultaneously treated with neopetasin at a concentration of 0.3 µM or 3 µM. Then, after 36 hours starting from this treatment, the cell viability was measured through the same method as in Test Example 1. Moreover, as a negative control section, DMSO was administered to perform the same experiment.

B16F10 cells [2] = assay: Mouse malignant melanoma lung metastasis model (Test Example 2); type: in vivo; details: 50 mg/kg intraperitoneally once every two days, 5 times; after 10 days
Method: Using the mouse malignant melanoma lung metastasis model, the metastasis inhibitory effect of neopetasin on tumor cells was examined. Specifically, C57BL/6 mice (6 weeks old, female) were purchased from Japan SLC (Hamamatsu). Then, the B16F10 cells were intravenously administered from tail vein in an amount of 0.25×10^6 cells/100 µL PBS. Then, from the day when the cells were seeded, neopetasin (50 mg/kg) was intraperitoneally administered once every two days (5 times in total). After 10 days from the start of administration, the lungs were dissected and extracted, and the number of metastasis lesions observed on the lung surface was counted. In addition, the P value was calculated using Student’s T-test using the GraphPad Prism software system (GraphPad software Inc) .

[3] = test system: mitochondrial respiratory chain Complex I; assay: MitoCheck Complex Activity Assay (Test Example 9); type: biochemical; details: II, II/III, IV and V tested
Method: Specifically, using the MitoCheck Complex Activity Assay Kit (Cayman Chemical Company, Ann Arbor, MI, USA), extent of relative activity of each of Complex I, Complex II, Complex II/III, Complex IV and Complex V constituting the mitochondrial respiratory chain that was reduced by neopetasin treatment was examined. Furthermore, as a negative control section, DMSO was administered to perform the same experiment. In addition, as a positive control section, rotenone (Complex I), TTFA (Complex II), antimycin A (Complexes II/III), KCN (Complex IV), and oligomycin (Complex V) were each administered, and the same experiment was conducted.

[4] = Cell proliferation inhibition assay (Test Example 14); type: cell-based; details: compared with petasin, S-petasin and S-neopetasin
Method: In this test example, IC50 values in the cell proliferation inhibition assay for petasin, neopetasin, S-petasin and S-neopetasin were measured in addition to the Petasites japonicus extract (whole extract).

Compound: C=C(C)[C@H]1C[C@@]2(C)C(=CC1=O)CC[C@@H](OC(=O)/C(C)=C\C)[C@@H]2C [Neopetasin, neopetasin]
- expression of cancer-related molecules (A2058 cells): inhibit a wide range of cancer-related molecules
- anticancer action of 2-DG on addition of neopetasin (B16F10 cells [1]): enhanced in a concentration-dependent manner
- lung metastasis (number of metastasis lesions on the lung surface) (B16F10 cells [2]): extremely potently suppressed lung metastasis; also recorded: inhibited lung metastasis
- relative activity of mitochondrial respiratory chain complexes [3]: selectively reduced only the relative activity of the mitochondrial respiratory chain Complex I
- cell proliferation inhibition activity (IC50 comparison) [4]: superior cell proliferation inhibition activity to the other three compounds

Source: patent publication US20230144898A1, “INHIBITOR OF ASPARTIC ACID SYNTHESIS IN TUMOR CELLS, INHIBITOR OF SPHEROID FORMATION OF TUMOR CELLS, INHIBITOR OF TUMOR CELL METASTASIS, ACTIVITY ENHANCER OF GLYCOLYTIC INHIBITOR, AND PHARMACEUTICAL COMPOSITION FOR SUPPRESSING AND/OR PREVENTING TUMOR METASTASIS” (CCI HOLDINGS INC., priority 2020, published 2023)
